In data set [1] the test system is HepG2. Put plainly: Antiproliferative activity against human HepG2 cells assessed as cell growth inhibition by MTT assay. It is filed as functional, cell-based.
The subject of a further data set is SW480. As to the kind of experiment: Antiproliferative activity against human SW480 cells assessed as cell growth inhibition by MTT assay. It is filed as functional, cell-based. A general note: Tetrazolium assays rely on reduction of a dye to a coloured formazan, in cell work by metabolically active cells.
Data set [2] can be described thus: Antiproliferative activity against mouse […] cells assessed as cell growth inhibition by MTT assay. It is filed as functional, cell-based.
Data set [3] is described as follows: Antiproliferative activity against human Lu1 cells assessed as cell growth inhibition by MTT assay. It is filed as functional, cell-based.
Data set [4] is described as follows: Cytotoxicity activity against human PBMC cells assessed as cell growth inhibition measured after 72 hrs by MTT assay. The format is toxicity, cell-based.
Data set [5] in a line: Cytotoxicity activity against African green monkey vero cells assessed as cell growth inhibition measured after 72 hrs by MTT assay. It is filed as toxicity, cell-based, Chlorocebus sabaeus.
A further data set concerns K562. Put plainly: Cytotoxicity activity against human K562 cells assessed as cell growth inhibition measured after 72 hrs by MTT assay. The settings on record: K562, 72 h. The format is functional, cell-based.
Data set [6] is described as follows: Cytotoxicity against human MCF-12A cells assessed as cell growth inhibition measured after 72 hrs by MTT assay. It is filed as toxicity, cell-based.
In data set [7] the test system is MDA-MB-231. Put plainly: Cytotoxicity against human MDA-MB-231 cells assessed as cell growth inhibition measured after 72 hrs by MTT assay. It is filed as functional, cell-based. The settings on record: MDA-MB-231, 72 h.
Data set [8] deals with MCF7. As to the kind of experiment: Cytotoxicity against human MCF7 cells assessed as cell growth inhibition measured after 72 hrs by MTT assay. The format is functional, cell-based. The settings on record: MCF7, 72 h.
Data set [9] can be described thus: Cytotoxicity against human HFB4 cells assessed as cell growth inhibition measured after 24 hrs by MTT assay. The format is toxicity, cell-based.
Data set [10] has as its system MCF7. As to the kind of experiment: Anticancer activity against human MCF7 cells assessed as cell growth inhibition measured after 24 hrs by MTT assay. The settings on record: MCF7, 24 h. The format is functional, cell-based.
In data set [11] the target is Urokinase-type plasminogen activator (Homo sapiens, UniProt P00749). As to the kind of experiment: Inhibition of urokinase plasminogen activator in human MCF7 cells measured after 24 hrs by ELISA method. It is filed as cell-based.
The test system of the next data set is CCRF-CEM. As to the kind of experiment: Antiproliferative activity against human CCRF-CEM cells assessed as cell growth inhibition measured after 48 hrs by SRB assay. It is filed as functional, cell-based. In general terms: The SRB assay estimates cell density from bound dye.
Data set [12] relates to A549. As to the kind of experiment: Antiproliferative activity against human A549 cells assessed as cell growth inhibition measured after 48 hrs by SRB assay. The format is functional, cell-based. The settings on record: A549, 48 h.
In data set [13] the test system is MCF7. As to the kind of experiment: Antiproliferative activity against human MCF7 cells assessed as cell growth inhibition measured after 48 hrs by SRB assay. The settings on record: MCF7, 48 h. The format is functional, cell-based.
In data set [14] the test system is MDA-MB-231. As to the kind of experiment: Antiproliferative activity against human MDA-MB-231 cells assessed as cell growth inhibition measured after 72 hrs by MTT assay. The format is functional, cell-based. As to conditions: MDA-MB-231, 72 h.
Data set [15] relates to MCF7. Put plainly: Antiproliferative activity against human MCF7 cells assessed as cell growth inhibition measured after 72 hrs by MTT assay. The format is functional, cell-based. The settings on record: MCF7, 72 h.
The subject of another data set is SW1990. As to the kind of experiment: Anticancer activity against human SW1990 cells assessed as cell growth inhibition measured after 72 hrs by Cell-Titre Glo luminescent cell viability assay. It is filed as functional, cell-based. As to conditions: SW1990, 72 h.
The test system of another data set is ASPC1. As to the kind of experiment: Anticancer activity against human ASPC1 cells assessed as cell growth inhibition measured after 72 hrs by Cell-Titre Glo luminescent cell viability assay. It is filed as functional, cell-based. The settings on record: ASPC1, 72 h.
A short description of data set [16]: Cytotoxicity against human ARPE-19 cells assessed as cell growth inhibition measured after 72 by Cell-Titre Glo luminescent cell viability assay. The format is toxicity, cell-based.
Data set [17] is described as follows: Cytotoxicity against human MRC5 cells assessed as cell growth inhibition measured after 72 by Cell-Titre Glo luminescent cell viability assay. It is filed as toxicity, cell-based.
Data set [18] concerns HepG2. As to the kind of experiment: Antitumor activity against human HepG2 xenografted in BALB/c nude mouse assessed as tumor growth inhibition at 10 mg/kg, iv administered every 2 days and measured upto 30 days relative to control. It is filed as functional. As to conditions: HepG2, 720 h, time <= 30 day, read-out: TGI.
The next data set relates to MIA PaCa-2. As to the kind of experiment: Antiproliferative activity against human MIA PaCa-2 cells assessed as cell growth inhibition measured after 48 hrs by SRB assay. The format is functional, cell-based. The settings on record: MIA PaCa-2, 48 h.
A further data set relates to Bel-7402. As to the kind of experiment: Antiproliferative activity against human Bel-7402 cells assessed as cell growth inhibition measured after 48 hrs by SRB assay. It is filed as functional, cell-based. The settings on record: Bel-7402, 48 h.
In data set [19] the test system is HepG2. Put plainly: Antiproliferative activity against human HepG2 cells assessed as cell growth inhibition measured after 48 hrs by SRB assay. It is filed as functional, cell-based. As to conditions: HepG2, 48 h.
Data set [20] has as its system HeLa. Put plainly: Potency index, ratio of cisplatin IC50 to compound IC50 for antiproliferative activity against human HeLa cells by MTT assay. The format is functional.
The subject of data set [21] is HeLa. As to the kind of experiment: Antiproliferative activity against human HeLa cells assessed as cell growth inhibition by MTT assay. The format is functional, cell-based.
The subject of another data set is A498. As to the kind of experiment: Antiproliferative activity against human A498 cells assessed as cell growth inhibition measured after 72 hrs by SRB assay. The format is functional, cell-based. As to conditions: A498, 72 h.
The test system of data set [22] is A549. As to the kind of experiment: Antiproliferative activity against human A549 cells assessed as cell growth inhibition measured after 72 hrs by SRB assay. The format is functional, cell-based. As to conditions: A549, 72 h.
A short description of data set [23]: Cytotoxicity against human NHDF cells assessed as cell growth inhibition measured after 72 hrs by SRB assay. It is filed as toxicity, cell-based.

This is an account of results in ChEMBL document CHEMBL5126512, “Current status of carbazole hybrids as anticancer agents” (Eur J Med Chem, 2022).

One may read the IC50 as the midpoint of a concentration-inhibition curve. Consider `COc1cc2c(cc1C)c1ccccc1n2CC(O)CN1CCN(C)CC1` (stereo not drawn), for which the IC50 (in the data set on HepG2 [1]; with SW480; in data set [2]; in [3]) was 3.99 µM throughout.
`Cc1c2ccncc2c(C)c2c1[nH]c1c(S(=O)(=O)O)cc(Br)cc12`: the IC50 at 72 h in data set [4] and in [5] was over 100 µM in each case. In addition, the IC50 in the data set with K562 was 35 µM.
As for `CC[n+]1c(/C=C/c2ccc3c(c2)c2ccccc2n3CCCCn2ccnc2)sc2ccccc21`, the IC50 at 72 h in data set [6] is over 18 µM. Also, the results for the IC50 in the data set with MDA-MB-231 [7] and in the data set on MCF7 [8] were 11.4 µM and 9.5 µM, respectively.
For the compound `c1cncc(C2c3[nH]c4ccccc4c3C(c3cccnc3)c3[nH]c4ccccc4c32)c1` (stereo not drawn), in data set [9], the IC50 at 24 h is 80 µM. In addition, the IC50 with MCF7 [10] was determined as 4 µM; in data set [11] it was 2.7 µM.
For the compound `COc1ccc2c(c1)c1cc3c(-c4c([N+](=O)[O-])ncn4C)nccc3c(C)c1n2C`, the IC50 in the data set with CCRF-CEM, in the data set on A549 [12] and in the data set with MCF7 [13] was 1.08 µM throughout.
Turning to `C[N+](C)(C)CCN1CCN(CCCCCn2c3ccccc3c3cc(Cl)ccc32)CC1`, the IC50 with MDA-MB-231 [14] and in the data set with MCF7 [15] was 4.4 µM throughout.
For the compound `C[N+](C)(C)CCN1CCN(CCCCCCn2c3ccccc3c3cc(Cl)ccc32)CC1`, the IC50 in the data set with MDA-MB-231 [14] and in the data set on MCF7 [15] was 4.4 µM throughout.
As to `CCCCn1c2ccccc2c2cc(/C=N/NC(=O)c3ccncc3)ccc21`, the IC50 in the data set on SW1990 is 22.4 µM; in the data set on ASPC1 it was 3.42 µM; in [16], 65.6 µM; in data set [17], 64.8 µM.
In the case of `CCN1CCN(CC(O)Cn2c3ccccc3c3cc(C)c(OC)cc32)CC1` (stereo not drawn), the IC50 (in the data set on HepG2 [1]; in the data set on SW480; in data set [2]; in data set [3]) was 3.99 µM throughout.
As for `COc1ccc(NS(=O)(=O)c2ccc3c(c2)c2cc(OCCCN4CCN(C)CC4)ccc2n3C)c(OC)n1`, the inhibition in vivo at 10 mg/kg in the data set with HepG2 [18] turned out to be 61.1%. In addition, the IC50 in the data set with MIA PaCa-2, with Bel-7402, in the data set with HepG2 [19] and in the data set on MCF7 [13] was 5.67 µM each time.
On to `CCCCCCCCn1c2ccc(/C=C/C(=O)c3ccccc3[N+](=O)[O-])cc2c2cc(C(C)=O)ccc21`, for which the “Ratio IC50” value in the data set with HeLa [20] is listed as 2. The half-maximal inhibitory concentration (IC50) in the data set on HeLa [21] came out at 5.64 µM.
With `Cc1c2ccncc2c(C(=O)NCCN(C)C)c2c3cc(CO)ccc3n(C)c12`, the figures for the IC50 in the data set with A498 and with A549 [22] were 0.78 µM and 0.65 µM, respectively. The IC50 at 72 h in data set [23] was 7.33 µM.
